We go through 73 compounds from PubChem BioAssay AID179 (DTP/NCI, 2004).

One may read the EC50 as the concentration at which the effect is half-maximal. The IC50 is the point on the concentration scale where inhibition reaches its midpoint. A high value points to weaker potency.

Calls of active or inactive are those of the source.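 Rule for the calls: active = compounds giving half or more protection of infected cells from virus-caused growth loss, again on retest; inactive = the rest.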 Bounds are passed on as bounds.

This test relates to CEM cells HIV-1 protection, formazan growth assay. The experiment in a line: NCI AIDS Antiviral Assay. To be noted: for IC50: measured here: growth of uninfected CEM cells. The essentials: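 Soluble formazan readout of cell growth; CEM cells ± HIV-1; 5 drug concs. ≥50% protection → retest; ≥50% again = moderately active; reproducible 100% = confirmed active.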

`c1ccc(CN2CCC(Nc3ccccc3)(c3nnnn3Cc3ccccc3)CC2)cc1`: the EC50 is over 200 µM and the IC50 was determined as 33.1 µM. With `CC1(C)O[C@H]2OC3CCC(=O)CC3(O)[C@H]2O1` (stereo not given in full), the outcome was inactive. On to `COc1ccc2nc(/N=C/N(C)C)sc2c1`, for which the EC50 was over 200 µM and the IC50 was over 200 µM. With `O=C1c2scc(-c3ccc(F)cc3)c2-n2cccc21`, the EC50 was over 200 µM and the IC50 came to 30.2 µM. Consider `O=S1c2ccccc2N=C(c2ccc3ccccc3c2)CC1c1ccccc1` (stereo not given), for which the EC50 was over 19.1 µM and the IC50 was over 19.1 µM.

Take `S=C(Nc1ccc(Br)cn1)Nc1ccccc1-c1ccccc1`: the EC50 is over 2 µM and the IC50 was 0.389 µM. As for `O=C(CCn1ccnc1)N1CCN(c2ccccc2)CC1`, the EC50 is over 871 µM and the IC50 amounted to 646 µM. As to `Cc1ccc(NC(=O)Nc2sc(=S)c3c(c2C#N)CCCC3)c(C)c1`, the EC50 is over 58.9 µM and the IC50 is over 58.9 µM. As for `CC(NC(=O)OC(C)(C)C)C(=O)NC1CCCC1` (stereo not given), the EC50 was over 200 µM and the concentration for half-maximal inhibition (IC50) is over 200 µM.

For the compound `O=[N+]([O-])C(C(Cl)=C(Cl)Cl)=C(N1CCOCC1)N1CCOCC1`, the EC50 was over 200 µM and the IC50 came to 123 µM.

For the compound `O=C(c1ccccc1)C(O)(c1ccccc1)C(c1ccccc1)c1ccccc1` (stereo not given), the EC50 is over 26.3 µM and the IC50 is over 26.3 µM. Regarding `COC(=O)C1=C2Nc3ccccc3C23CCN2C(=O)C[C@H](C1)[C@@H]23` (stereo not given in full), the outcome was inactive. On to `COc1cc(C(=O)O)ccc1OS(=O)(=O)O`, for which the EC50 is over 200 µM and the IC50 was over 200 µM. Regarding `CC1(C)CCC(C)(C)C1C(=O)NC(O)C(=O)O` (stereo not given), the EC50 was over 200 µM and the IC50 was over 200 µM. For the compound `CC(=O)OCN(C)c1nc(N(C)COC(C)=O)nc(N(C)COC(C)=O)n1`, the EC50 was over 50.1 µM and the IC50 was over 50.1 µM. As to `CCO/C=N/C1=C(C#N)C(c2ccc(OC)c(OC)c2)c2c(-c3ccccc3)nn(-c3ccccc3)c2O1` (stereo not given), the EC50 was over 100 µM and the IC50 was found to be 14.1 µM. The corresponding values for `C/C=C1/CN2CC[C@]34C=C(CO)C1CC23Nc1ccccc14` (stereo not given in full) are over 123 µM and over 123 µM. Regarding `Cc1cccc(C)c1OC(F)(F)c1nc2ccccc2o1`, the EC50 was over 200 µM and the IC50 worked out at 30.2 µM.

`O=C(c1ccccc1)C1S(=O)(=O)OCCOS1(=O)=O`: the EC50 was over 5130 µM and the concentration for half-maximal inhibition (IC50) was determined as 3090 µM. On to `O=C(NCCCCCCNC(=O)n1cc(F)c(=O)[nH]c1=O)NCCCOCCOCCOCCOCCOCCOCCOCCOCCOCCOCCOCCOCCOCCOCCOCCOCCOCCOCCOCCOCCOCCCNC(=O)C(O)C(O)C(O)C(O)CO` (stereo not given), for which the result was inactive.

In the case of `O=C1NC2=C(CCCC/C2=N\O)C12CCCCC2`, the outcome was inactive.

Consider `COP1(=S)OCC(C(C)(C)C)CO1` (stereo not given), for which the EC50 was over 57.5 µM and the IC50 is over 57.5 µM. Turning to `Cn1cnc([N+](=O)[O-])c1Sc1nccc(=O)[nH]1`, the EC50 was over 977 µM and the IC50 is over 200 µM. Consider `Cc1ccc(N=Nc2c(C)nn(-c3ccccc3)c2C)c(Br)c1`, for which the result was inactive. Consider `N#Cc1ccc(/C=C2\CCc3ccccc3C2=O)cc1`, for which the EC50 was over 20 µM and the IC50 was over 20 µM.

On to `CN1Cc2ccccc2/C=C\c2ccccc21`, for which the EC50 is over 200 µM and the IC50 was determined as 132 µM.

Consider `COc1cc2c(cc1O)C1(Cc3ccc4c(c3[C@@H]1O)OCO4)N(C)CC2` (stereo not given in full), for which the EC50 is over 141 µM and the IC50 was over 141 µM. With `NC1CCC(N(CC(=O)O)CC(=O)O)C(N(CC(=O)O)CC(=O)O)C1` (stereo not given), the EC50 is over 200 µM and the IC50 came out at 112 µM. For the compound `COC(=O)C(=O)C(C(=O)OC)C(=O)C(=O)Nc1cc(Cl)c(C)cc1S(=O)(=O)O` (stereo not given), the EC50 was over 575 µM and the IC50 was over 575 µM. Take `NCCOB(c1ccccc1)c1ccccc1`: the EC50 was over 200 µM and the IC50 worked out at 38.9 µM. As for `CCOC(=O)c1nc2cc(C(F)(F)F)ccc2nc1Oc1ccc(C#N)cc1`, the EC50 is over 200 µM and the IC50 is 93.3 µM. The corresponding values for `CCOc1ncn(-c2ccc(NC(=S)NC34CC5CC(CC(C5)C3)C4)cc2)n1` are 12 µM and 67.6 µM. Regarding `COc1cc2nc(/C=C/c3nc4cc(OC)c(OC)cc4[nH]3)[nH]c2cc1OC`, the EC50 was over 200 µM and the IC50 turned out to be 57.5 µM.

`CCN(CC)CC(=O)Nc1cccc(C(=O)OC(C)C)c1`: the EC50 was over 200 µM and the IC50 is over 200 µM.

For the compound `C/C(NNC(=O)c1ccccc1O)=C1\C=Nc2ccccc2S1`, the EC50 was over 15.8 µM and the IC50 was 0.0794 µM. As to `Cc1cccc(N=Nc2c(C)nn(C(=O)CC(=O)Nc3ccc(Cl)cc3)c2C)c1`, the EC50 was over 200 µM and the IC50 was found to be 123 µM.

As to `O=C(CCC(=O)Nc1ccc(Cl)cc1)CC(=O)c1ccc(F)cc1`, the outcome was inactive. As for `Cc1ccc(N=C2SC(c3ccc(C)cc3)(c3ccc(C)cc3)c3ccccc32)cc1`, the EC50 is over 200 µM and the IC50 was over 200 µM. In the case of `Cc1cnc(/N=c2\sc(C)cn2-c2ncc(C)s2)s1`, the EC50 was over 200 µM and the IC50 is over 200 µM. Take `CN(C)P(=O)(N(C)C)N(C)C.[CH3][Sn]([CH3])([Cl])[Cl]`: the result was inactive.

Regarding `CN(C)c1ccc(C=C(C(=O)O)C(=O)O)cc1`, the EC50 is over 550 µM and the IC50 was over 550 µM. With `C[C@H]1CC[C@@H]2[C@@H](C)[C@H]3[C@H](C[C@H]4[C@@H]5CC=C6C[C@@H](O)CC[C@]6(C)[C@H]5C[C@H](O)[C@]34C)N2C1`, the result was inactive. Take `Cc1nc(Nc2ccc([N+](=O)[O-])cc2)sc1C(=O)/C=C/c1ccc(N(C)C)cc1`: the EC50 is over 33.1 µM and the 50% inhibitory concentration (IC50) stood at 18.6 µM. On the same counts, the results for `N#CCCN(C1=NN(C(=O)CC(=O)Nc2cccc(Cl)c2)C(c2ccccc2)C1)c1ccccc1Cl` (stereo not given) are over 69.2 µM and over 69.2 µM.

Turning to `CCc1cccc(C(C)C)c1NC(=O)C(=O)C1C(=O)NC(=O)NC1=O`, the result was inactive. Consider `CCN(CC)CCOc1ccc(/C(C#N)=C/c2ccc(SC(C)C)cc2)cc1`, for which the EC50 was over 100 µM and the IC50 came to 1.41 µM.

Regarding `CC1(C)CCCC(C)(C)N1[P-]C(=O)[P-]N1C(C)(C)CCCC1(C)C.[C-]#[O+].[C-]#[O+].[C-]#[O+].[C-]#[O+].[C-]#[O+].[C-]#[O+].[Fe].[Fe]` (stereo not given), the EC50 was over 2.24 µM and the IC50 was over 2.24 µM.

As to `Cc1cccc2ns[s+]c12`, the EC50 was over 18.6 µM and the IC50 is over 18.6 µM. Regarding `CC(C)OC(=O)c1ccc(NCc2cc(O)ccc2O)cc1Cl`, the EC50 is over 200 µM and the IC50 was determined as 3.63 µM.

As for `CCOC(=O)/C(C(=S)NCc1ccccc1)=C(/N)N1CCCC1`, the EC50 was over 200 µM and the 50% inhibitory concentration (IC50) was over 200 µM. `O=c1[nH]n(CCc2ccccn2)c(=O)c2ccccc12`: the EC50 was over 200 µM and the IC50 was over 200 µM. In the case of `CCOC(=O)/C=C(/N=P(c1ccccc1)(c1ccccc1)c1ccccc1)C(F)(F)F`, the EC50 was over 200 µM and the IC50 is 13.8 µM. Turning to `COCCOCCOCCOCCOCCOCCOCCOCCOCCOCCOCCOCCOCCOCCOCCOCCOCC(=O)N(CCn1ccc(NC(c2ccccc2)(c2ccccc2)c2ccccc2)nc1=O)CCn1cnc2nc(NC(=O)c3ccccc3)[nH]c(=O)c21`, the EC50 is over 170 µM and the IC50 worked out at 85.1 µM. On the same counts, the results for `O=c1oc2nc3ccc(Cl)cc3c(=O)n2c2ccc(Cl)cc12` are over 200 µM and over 200 µM. On to `c1ccc(-c2sc(-c3cccs3)cc2Cc2cccs2)cc1`, for which the EC50 is over 200 µM and the IC50 worked out at 83.2 µM. Turning to `N[C@H]1CCC[C@@H](O)C1O` (stereo not given in full), the EC50 is over 200 µM and the IC50 is over 200 µM. On to `COC1=CC(=O)[C@]2(C)[C@H](C1=O)C(C)[C@H]2c1ccc(OC)cc1` (stereo not given in full), for which the EC50 is over 87.1 µM and the IC50 was over 87.1 µM.

As for `Cc1ccc(-c2oc3ccccc3c(=O)c2O)cc1`, the EC50 was over 200 µM and the IC50 worked out at 53.7 µM. `N=c1c2ncn3c(=O)n(-c4ccccc4)c(nc(=O)n1-c1ccccc1)c23`: the EC50 was over 14.5 µM and the IC50 worked out at 8.32 µM.

In the case of `O=C1CC(=O)NC(=NN2C(=O)/C(=C/C(=O)c3ccco3)N=C2c2ccccc2)N1`, the EC50 is over 200 µM and the IC50 is 32.4 µM. For `CN1CCC/C1=C1\C(=O)c2cccn2C1=O`, the EC50 is over 200 µM and the IC50 was over 200 µM. Consider `O=C1CCS(=O)(=O)O1`, for which the EC50 is over 1820 µM and the IC50 was over 1820 µM. Turning to `COc1ccc(OC)c(/C=C(\C#N)c2ccc([N+](=O)[O-])cc2)c1`, the EC50 was over 200 µM and the IC50 is over 200 µM.

For `CN1C2CCC1C(C(=O)O)C(O)C2` (stereo not given), the EC50 was over 200 µM and the IC50 was over 200 µM. As to `O=[N+]([O-])c1ccc(C2=Nn3c(nnc3-c3ccc(Cl)cc3)SC2)o1`, the result was inactive. Regarding `CC(C)(c1ccccc1)c1ccc(OC#N)cc1`, the EC50 was over 57.5 µM and the IC50 is over 57.5 µM. As to `Cc1cc(C)c(/C=C(\C(=C/c2c(C)cc(C)cc2C)[N+](=O)[O-])[N+](=O)[O-])c(C)c1`, the EC50 is over 100 µM and the IC50 was over 100 µM. Turning to `CCC(c1ccc(Cl)cc1)N1CCC2(CC1)C(=O)NCN2c1ccccc1` (stereo not given), the EC50 was over 200 µM and the IC50 is over 200 µM. Regarding `O=C(Nc1ncnc2c1ncn2C1OC(CO)CC1F)c1ccccc1` (stereo not given), the outcome was inactive. On to `Cc1ccc(S(=O)(=O)Nn2c(O)c(C#N)c(-c3ccc(N(C)C)cc3)c(C#N)c2=O)cc1`, for which the EC50 is over 200 µM and the IC50 is over 200 µM. On to `C[S+](C)CCS(=O)(=O)[O-]`, for which the EC50 was over 200 µM and the IC50 was over 200 µM.

Turning to `CCOC(=O)c1c(C)cc(=O)n2c1[nH]c1ccccc12`, the EC50 is over 200 µM and the IC50 was found to be 151 µM. For the compound `CCOC(=O)N/N=C(/N)c1cccc([N+](=O)[O-])c1`, the EC50 is over 200 µM and the IC50 is over 200 µM.
